Experimental data taken from patent US10202331B2, “Antifibrinolytic compounds” (THROMBOLYTICS, LLC, priority 2014, dated 2019).

Columns and labels:
Human Plasminogen = Human Plasminogen (Homo sapiens, UniProt P00747); test: Coupled in vitro fibrinolytic assay (fibrin clot lysis, absorbance at 405 nm); assay type: biochemical; conditions: for Potency TXA = 100: relative to TXA = 100
Excerpt: The principles and procedures for these assays are as follows. • a) The coupled enzyme reactions in these fibrinolytic assays The assays are constituted of four principal reactions. These are: • (a) The thrombin catalyzed conversion of fibrinogen to the insoluble fibrin clot. Soluble human fibrinogen is a constituent of these assays. The assays are initiated by the addition of human Thrombin, causing the known partial proteolysis of fibrinogen to generate fibrin, which polymerizes to yield an insoluble, opaque “clot”. This is not the same as a fibrin clot obtained physiologically, as it lacks numerous attributes of a physiological clot. […] It is known to bind with a very high affinity to insoluble polymerized fibrin, while it has a much weaker affinity for Fibrinogen. […] All constituents are prepared at appropriate higher stock concentrations from which aliquots are taken and mixed to a final volume of 400 μliters. Included ingredients and their final (assay) concentration are: […] The plates are placed in the plate reader sample compartment maintained at 37°. Assays are conducted with or without pre incubating the fibrinolytic inhibitors with the protein(s) of interest overnight. These two protocols are as follows: • (a) Experiments without pre-incubation: These assays are constituted as follows: […] The assay solutions are mixed & stirred, and the micro titer plate placed in the plate reader. Assays are initiated by delivering a solution (20 μliters) containing Thrombin and either Urokinase or TPA. […] Following pre incubation, the assay solutions are warmed to 37° in the plate reader, and the assays carried out as in (a), above, being initiated with the addition of Thrombin and TPA or Urokinase. The role of Antifibrinolytics in slowing clot dissolution is illustrated in the FIGURE, which illustrates the type of data obtained from the coupled Fribrinolysis Assays described above in Protocols 3(a) and 3(b). […] This represents the formation of fibrin in the assays. […] As a result, an exponential decay in the amount of fibrin present in the assays is observed. This process is illustrated above over a 10 to 30 minute period in control assays, in the absence of antifibrinolytic compounds. As a rough approximation, these can be considered as two sequential exponential processes—the first, formation of fibrin, or the clot, preceding the second—clot breakdown or the fibrinolytic process. A rough measure of the efficacy of fibrinolytic inhibitors, as determined in these coupled assays, is the half-life of the pseudo exponential decline in the optical density of the assay mixtures in the second portion of the reaction. A more rigorous measure of the effectiveness of the compounds to inhibit fibrinolysis, and, by inference, physiological thrombolytic processes, can be obtained by recording the observed fibrinolytic half-lives as a function of the fibrinolytic inhibitor concentration.

Kringles = test: Ability to substitute for EACA/TXA in binding to Kringles; conditions: as determined by the applicant
Excerpt: The D-configuration is preferred in the terminal amino acid in order to protect these dipeptides from peptidases.

[1] = Compounds Preincubated with Plasminogen and Fibrinogen
[2] = Compounds Preincubated with Plasminogen and Fibrinogen, relative to control without inhibitor
[3] = No Preincubation, fibrin half life relative to control without inhibitor

Sequence of Human Plasminogen (P00747 20-810 limits assumed): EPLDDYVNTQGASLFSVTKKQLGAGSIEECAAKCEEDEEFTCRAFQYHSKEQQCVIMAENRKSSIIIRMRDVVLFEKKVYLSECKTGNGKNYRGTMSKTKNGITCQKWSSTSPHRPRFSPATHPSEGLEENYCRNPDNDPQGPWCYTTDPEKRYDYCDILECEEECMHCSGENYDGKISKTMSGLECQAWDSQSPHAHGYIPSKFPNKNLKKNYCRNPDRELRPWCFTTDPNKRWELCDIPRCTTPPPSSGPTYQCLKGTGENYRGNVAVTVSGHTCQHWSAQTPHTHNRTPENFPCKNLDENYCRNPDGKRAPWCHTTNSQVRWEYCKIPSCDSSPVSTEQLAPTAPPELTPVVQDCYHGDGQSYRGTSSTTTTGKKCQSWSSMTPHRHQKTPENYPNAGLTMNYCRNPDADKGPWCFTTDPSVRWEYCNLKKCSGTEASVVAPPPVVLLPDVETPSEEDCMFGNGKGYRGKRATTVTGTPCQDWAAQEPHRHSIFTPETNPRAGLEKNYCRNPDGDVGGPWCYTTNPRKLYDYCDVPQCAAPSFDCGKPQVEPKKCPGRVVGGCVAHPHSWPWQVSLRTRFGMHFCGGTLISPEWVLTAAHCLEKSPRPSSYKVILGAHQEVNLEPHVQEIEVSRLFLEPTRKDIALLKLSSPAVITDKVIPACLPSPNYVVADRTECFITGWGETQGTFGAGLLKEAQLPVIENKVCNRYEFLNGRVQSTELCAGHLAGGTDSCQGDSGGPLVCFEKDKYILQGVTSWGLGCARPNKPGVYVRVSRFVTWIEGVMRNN

Row | SMILES | Inhibition Percent (Human Plasminogen; [1]) | Potency TXA = 100 (Human Plasminogen; [1]) | Percent Of Control (Human Plasminogen; [2]) | Inhibition Percent (Human Plasminogen; No Preincubation) | Percent Of Control (Human Plasminogen; [3]) | Potency TXA = 100 (Human Plasminogen; No Preincubation) | ability to substitute for EACA/TXA (Kringles) | anti-fibrinolytic effect compared with ACA or TXA (in words) (Human Plasminogen)
1 | NCCCCCC(=O)O [ACA, 6-aminohexanoic acid] | 41.8% | 52 | 172% | 37.5% | 160% | 53 |  | 
2 | C[S+](C)CCCCCC(=O)O [ACA_S, 6-(S,S dimethylthio) Hexanoic acid sultane] | 88.5% | 264 | 870% | 70.0% | 333% | 111 |  | 
3 | Cn1cncc1C[C@H](NC(=O)CCN)C(=O)O [Anserine] |  |  |  |  |  |  | substitute for EACA/TXA | 
4 | NCCC(=O)N[C@@H](Cc1c[nH]cn1)C(=O)O [Carnosine, β-Alanyl histidine] |  |  |  |  |  |  | substitute for EACA/TXA | 
5 | NC[C@H]1CC[C@H](C(=O)O)CC1 [TXA, trans-4-(aminomethyl)cyclohexanecarboxylic acid] | 69.7% | 100 | 329% | 66.6% | 300% | 100 |  | 
6 | C[S+](C)C[C@H]1CC[C@H](C(=O)O)CC1.[Cl-] [TXA_S, trans-(4-dimethylthiomethyl) Cyclohexane-1-carboxylic acid sulfonium chloride] | 90.6% | 321 |  | 71.9% | 356% | 119 |  | functions as well as TXA in inhibiting fibrinolysis
